From patent US20160287626A1, “METHODS OF TREATING AND PREVENTING RADIATION DAMAGE” (CANTEX PHARMACEUTICALS, INC., priority 2013, published 2016)
“Also recorded” adds a separate entry of the source.

What was measured:
[1] = tested on: CD2F1 mice irradiated with 9.25 Gy; assay: Survival of CD2F1 mice after 9.25 Gy total body irradiation; assay type: in vivo; conditions: 9.25 Gy TBI
Method: FIG. 1 provides a graph illustrating the survival of CD2F1 mice after total body irradiation: control group with no post-irradiation treatment (o); 0.1 mL PBS administered subcutaneously at 4 h post-irradiation (□); 0.1 mL PBS administered subcutaneously at 24, 36, and 48 h post-irradiation (Δ); 0.1 mL 25 mg/kg ODSH administered subcutaneously at 4, 16, and 28 h post-irradiation (▪); and 0.1 mL 25 mg/kg ODSH administered subcutaneously at 24, 36, and 48 h post-irradiation (▴).
CD2F1 male mice (Batch #7586 DOB Dec. 23, 2012) were weighed and animals outside ±20% of the mean weight were excluded. Mice that were within ±20% of the mean weight were randomized into groups of eight animals per box. There were 24 animals per treatment group. The animals received radiation at a dose rate of 0.6 Gy/min in the AFRRI Cobalt 60 gamma radiation facility. Animals were irradiated in Lucite boxes (8 animals/box) and arranged in an array (dosimetry Feb. 25, 2010) using plastic racks. Animals were restrained for no more than 60 min and returned to cages at the end of the irradiation period.
Post-TBI, animals were untreated (naïve) or treated subcutaneously with either phosphate buffered solution (PBS) or ODSH (2-O, 3-O desulfated heparin). […] The animals were monitored daily (twice a day when necessary) for 30 days and euthanized at the completion of the observational period.

anti-coagulant activity = conditions: cited from earlier work

Substance | survival over the post-irradiation period compared with naïve and PBS-treated mice ([1]; 25 mg/kg s.c. post-irradiation (24, 36 and 48 h), 30-day observation, 25 mg/kg) | mice still alive at day 10 post-irradiation ([1]; 0.1 mL 25 mg/kg s.c. at 24, 36 and 48 h post-irradiation, day 10) [%] | anti-coagulant activity in the USP anti-coagulant assay (anti-coagulant activity) | anti-coagulant activity in the USP anti-coagulant assay (example value) (anti-coagulant activity; e.g. value) [U]
2-O, 3-O desulfated heparin [ODSH] | greatest percentage survival; also recorded: improves survival | 95 | less than 9 U/mg | 7±0.3
Unfractionated heparin [reference compound] |  |  | 165-190 U/mg | 
